Data published in ChEMBL document CHEMBL3044600 (Biochem Syst Ecol, 2008).
Active and inactive are the calls of the source. The calls are words filed in the database; no cut-off is given here.

Tested on: Myzus persicae
Assay: Antifeedant activity against Myzus persicae (green peach aphid) adults fed on compound treated […] annuum leaves assessed as feeding level at 50 ug/cm2 (reference value: 43 to 70%)
Assay type: functional
Settings: not given

Compound	Activity [%]
C/C=C1\C[C@@H](C)[C@](O)(CO)C(=O)OCC2=CCN3CC[C@@H](OC1=O)[C@@H]23 (stereo in doubt; 7) [RETRORSINE]	44
C/C=C1\C[C@@H](C)[C@](O)(CO)C(=O)OCC2=CCN3CC[C@@H](OC1=O)[C@@H]23 (stereo in doubt; 8) [RETRORSINE]	30
C/C=C1/C[C@@H](C)[C@@](C)(OC(C)=O)C(=O)OC/C2=C/CN(C)CC[C@@H](OC1=O)C2=O [ACETYLSENKIRKINE]	35
C/C=C1\C[C@@H](C)[C@](O)(COC(C)=O)C(=O)OCC2=CCN3CC[C@@H](OC1=O)[C@@H]23 [ACETYLUSARAMINE]	40
C/C=C(/C)C(=O)O[C@@H]1CC[N+]2([O-])CC=C(COC(=O)[C@@](O)([C@H](C)O)C(C)(C)O)[C@H]12 (stereo partly drawn) [ECHIMIDINE N-OXIDE]	40
C/C=C(/C)C(=O)O[C@@H]1CCN2CC=C(COC(=O)[C@@](O)([C@H](C)O)C(C)(C)O)[C@H]12 [ECHIMIDINE]	40
C/C=C1/C[C@@]2(CO)O[C@@]2(C)C(=O)OCC2=CCN3CC[C@@H](OC1=O)[C@@H]23 [ERUCIFOLINE]	31
C/C=C1\C[C@@H](C)[C@@](C)(O)C(=O)OCC2=CCN3CC[C@@H](OC1=O)[C@@H]23 [INTEGERRIMINE]	57

Tested on: Spodoptera littoralis
Assay: Antifeedant activity against Spodoptera littoralis L6 larvae assessed as food consumption level orally dosed with 40 ug after 72 hr relative to untreated control
Assay type: functional
Settings: not given

Compound	Activity [%]
C/C=C1\C[C@@H](C)[C@](O)(CO)C(=O)OCC2=CCN3CC[C@@H](OC1=O)[C@@H]23 (stereo in doubt; 7) [RETRORSINE]	88
C/C=C1\C[C@@H](C)[C@](O)(CO)C(=O)OCC2=CCN3CC[C@@H](OC1=O)[C@@H]23 (stereo in doubt; 8) [RETRORSINE]	92
C/C=C1/C[C@@H](C)[C@@](C)(OC(C)=O)C(=O)OC/C2=C/CN(C)CC[C@@H](OC1=O)C2=O [ACETYLSENKIRKINE]	88
C/C=C1\C[C@@H](C)[C@](O)(COC(C)=O)C(=O)OCC2=CCN3CC[C@@H](OC1=O)[C@@H]23 [ACETYLUSARAMINE]	106
C/C=C(/C)C(=O)O[C@@H]1CC[N+]2([O-])CC=C(COC(=O)[C@@](O)([C@H](C)O)C(C)(C)O)[C@H]12 (stereo partly drawn) [ECHIMIDINE N-OXIDE]	113
C/C=C(/C)C(=O)O[C@@H]1CCN2CC=C(COC(=O)[C@@](O)([C@H](C)O)C(C)(C)O)[C@H]12 [ECHIMIDINE]	165
C/C=C1/C[C@@]2(CO)O[C@@]2(C)C(=O)OCC2=CCN3CC[C@@H](OC1=O)[C@@H]23 [ERUCIFOLINE]	102
C/C=C1\C[C@@H](C)[C@@](C)(O)C(=O)OCC2=CCN3CC[C@@H](OC1=O)[C@@H]23 [INTEGERRIMINE]	88

Tested on: Lactuca sativa
Assay: Phytotoxicity against Lactuca sativa var. Carrascoy (lettuce) assessed as inhibition of radicle length at 50 ug/cm2 after 24 to 144 hr
Assay type: functional
Settings: not given

Compound	inhibition at 50 µg/cm2 [%]
C/C=C1\C[C@@H](C)[C@](O)(CO)C(=O)OCC2=CCN3CC[C@@H](OC1=O)[C@@H]23 (stereo in doubt; 8) [RETRORSINE]	< 50
C/C=C1/C[C@@H](C)[C@@](C)(OC(C)=O)C(=O)OC/C2=C/CN(C)CC[C@@H](OC1=O)C2=O [ACETYLSENKIRKINE]	< 50
C/C=C1\C[C@@H](C)[C@](O)(COC(C)=O)C(=O)OCC2=CCN3CC[C@@H](OC1=O)[C@@H]23 [ACETYLUSARAMINE]	< 50
C/C=C1/C[C@@]2(CO)O[C@@]2(C)C(=O)OCC2=CCN3CC[C@@H](OC1=O)[C@@H]23 [ERUCIFOLINE]	< 50
C/C=C1\C[C@@H](C)[C@@](C)(O)C(=O)OCC2=CCN3CC[C@@H](OC1=O)[C@@H]23 [INTEGERRIMINE]	< 50

Tested on: Leptinotarsa decemlineata
Assay: Antifeedant activity against Leptinotarsa decemlineata adults fed on compound treated Capsicum annuum leaves assessed as inhibition of feeding
Assay type: functional, organism-based
Settings: not given

Compound	EC50 [microg/cm2]
C/C=C1\C[C@@H](C)[C@](O)(CO)C(=O)OCC2=CCN3CC[C@@H](OC1=O)[C@@H]23 (stereo in doubt; 7) [RETRORSINE]	> 50
C/C=C1/C[C@@H](C)[C@@](C)(OC(C)=O)C(=O)OC/C2=C/CN(C)CC[C@@H](OC1=O)C2=O [ACETYLSENKIRKINE]	> 50
C/C=C(/C)C(=O)O[C@@H]1CC[N+]2([O-])CC=C(COC(=O)[C@@](O)([C@H](C)O)C(C)(C)O)[C@H]12 (stereo partly drawn) [ECHIMIDINE N-OXIDE]	> 50
C/C=C(/C)C(=O)O[C@@H]1CCN2CC=C(COC(=O)[C@@](O)([C@H](C)O)C(C)(C)O)[C@H]12 [ECHIMIDINE]	1.4
C/C=C1/C[C@@]2(CO)O[C@@]2(C)C(=O)OCC2=CCN3CC[C@@H](OC1=O)[C@@H]23 [ERUCIFOLINE]	> 50
C/C=C1\C[C@@H](C)[C@@](C)(O)C(=O)OCC2=CCN3CC[C@@H](OC1=O)[C@@H]23 [INTEGERRIMINE]	3.4

Tested on: Lactuca sativa
Assay: Phytotoxicity against Lactuca sativa var. Carrascoy (lettuce) assessed as inhibition of seed germination at 50 ug/cm2 after 24 hr
Assay type: functional, organism-based
Settings: not given

Compound	inhibition
C/C=C1/C[C@@H](C)[C@@](C)(OC(C)=O)C(=O)OC/C2=C/CN(C)CC[C@@H](OC1=O)C2=O [ACETYLSENKIRKINE]	Active
C/C=C1\C[C@@H](C)[C@](O)(COC(C)=O)C(=O)OCC2=CCN3CC[C@@H](OC1=O)[C@@H]23 [ACETYLUSARAMINE]	Active
C/C=C1/C[C@@]2(CO)O[C@@]2(C)C(=O)OCC2=CCN3CC[C@@H](OC1=O)[C@@H]23 [ERUCIFOLINE]	Active

Tested on: not listed separately
Assay: Toxicity against Spodoptera frugiperda (fall armyworm) Sf9 cells by MTT assay
Assay type: cell-based
Settings: not given

Compound	EC50 [µg/mL]
C/C=C1\C[C@@H](C)[C@](O)(CO)C(=O)OCC2=CCN3CC[C@@H](OC1=O)[C@@H]23 (stereo in doubt; 8) [RETRORSINE]	> 100
C/C=C1\C[C@@H](C)[C@](O)(COC(C)=O)C(=O)OCC2=CCN3CC[C@@H](OC1=O)[C@@H]23 [ACETYLUSARAMINE]	> 100
C/C=C1\C[C@@H](C)[C@@](C)(O)C(=O)OCC2=CCN3CC[C@@H](OC1=O)[C@@H]23 [INTEGERRIMINE]	> 100

Tested on: Spodoptera littoralis
Assay: Antifeedant activity against Spodoptera littoralis L6 larvae assessed as biomass gain orally dosed with 40 ug after 72 hr relative to untreated control
Assay type: functional
Settings: not given

Compound	Activity [%]
C/C=C1\C[C@@H](C)[C@](O)(CO)C(=O)OCC2=CCN3CC[C@@H](OC1=O)[C@@H]23 (stereo in doubt; 7) [RETRORSINE]	90
C/C=C1\C[C@@H](C)[C@](O)(CO)C(=O)OCC2=CCN3CC[C@@H](OC1=O)[C@@H]23 (stereo in doubt; 8) [RETRORSINE]	102
C/C=C1/C[C@@H](C)[C@@](C)(OC(C)=O)C(=O)OC/C2=C/CN(C)CC[C@@H](OC1=O)C2=O [ACETYLSENKIRKINE]	100
C/C=C1\C[C@@H](C)[C@](O)(COC(C)=O)C(=O)OCC2=CCN3CC[C@@H](OC1=O)[C@@H]23 [ACETYLUSARAMINE]	60
C/C=C(/C)C(=O)O[C@@H]1CC[N+]2([O-])CC=C(COC(=O)[C@@](O)([C@H](C)O)C(C)(C)O)[C@H]12 (stereo partly drawn) [ECHIMIDINE N-OXIDE]	102
C/C=C(/C)C(=O)O[C@@H]1CCN2CC=C(COC(=O)[C@@](O)([C@H](C)O)C(C)(C)O)[C@H]12 [ECHIMIDINE]	118
C/C=C1/C[C@@]2(CO)O[C@@]2(C)C(=O)OCC2=CCN3CC[C@@H](OC1=O)[C@@H]23 [ERUCIFOLINE]	106
C/C=C1\C[C@@H](C)[C@@](C)(O)C(=O)OCC2=CCN3CC[C@@H](OC1=O)[C@@H]23 [INTEGERRIMINE]	89

Tested on: Spodoptera littoralis
Assay: Antifeedant activity against Spodoptera littoralis sixth-instar larvae fed on compound treated Solanum tuberosum leaves assessed as inhibition of feeding
Assay type: functional, organism-based
Settings: not given

Compound	EC50 [microg/cm2]
C/C=C1\C[C@@H](C)[C@](O)(CO)C(=O)OCC2=CCN3CC[C@@H](OC1=O)[C@@H]23 (stereo in doubt; 7) [RETRORSINE]	> 50
C/C=C1/C[C@@H](C)[C@@](C)(OC(C)=O)C(=O)OC/C2=C/CN(C)CC[C@@H](OC1=O)C2=O [ACETYLSENKIRKINE]	> 50
C/C=C(/C)C(=O)O[C@@H]1CC[N+]2([O-])CC=C(COC(=O)[C@@](O)([C@H](C)O)C(C)(C)O)[C@H]12 (stereo partly drawn) [ECHIMIDINE N-OXIDE]	> 50
C/C=C(/C)C(=O)O[C@@H]1CCN2CC=C(COC(=O)[C@@](O)([C@H](C)O)C(C)(C)O)[C@H]12 [ECHIMIDINE]	> 50
C/C=C1/C[C@@]2(CO)O[C@@]2(C)C(=O)OCC2=CCN3CC[C@@H](OC1=O)[C@@H]23 [ERUCIFOLINE]	> 50
C/C=C1\C[C@@H](C)[C@@](C)(O)C(=O)OCC2=CCN3CC[C@@H](OC1=O)[C@@H]23 [INTEGERRIMINE]	> 100

Tested on: not listed separately
Assay: Toxicity against Cricetulus griseus CHO (Chinese hamster ovary) cell by MTT assay
Assay type: cell-based
Settings: CHO cells

Compound	EC50 [µg/mL]
C/C=C1\C[C@@H](C)[C@](O)(CO)C(=O)OCC2=CCN3CC[C@@H](OC1=O)[C@@H]23 (stereo in doubt; 8) [RETRORSINE]	> 100
C/C=C1\C[C@@H](C)[C@](O)(COC(C)=O)C(=O)OCC2=CCN3CC[C@@H](OC1=O)[C@@H]23 [ACETYLUSARAMINE]	> 100
C/C=C1\C[C@@H](C)[C@@](C)(O)C(=O)OCC2=CCN3CC[C@@H](OC1=O)[C@@H]23 [INTEGERRIMINE]	> 100

Tested on: Lactuca sativa
Assay: Phytotoxicity against Lactuca sativa var. Carrascoy (lettuce) assessed as inhibition of seed germination at 50 ug/cm2 after 48 hr
Assay type: functional, organism-based
Settings: not given

Compound	inhibition
C/C=C1/C[C@@H](C)[C@@](C)(OC(C)=O)C(=O)OC/C2=C/CN(C)CC[C@@H](OC1=O)C2=O [ACETYLSENKIRKINE]	Active

Tested on: Rhopalosiphum padi
Assay: Antifeedant activity against Rhopalosiphum padi adults fed on compound treated Hordeum vulgare annuum leaves assessed as feeding level at 50 ug/cm2 (reference value: 47 to 64%)
Assay type: functional
Settings: not given

Compound	Activity [%]
C/C=C1\C[C@@H](C)[C@](O)(CO)C(=O)OCC2=CCN3CC[C@@H](OC1=O)[C@@H]23 (stereo in doubt; 7) [RETRORSINE]	46
C/C=C1\C[C@@H](C)[C@](O)(CO)C(=O)OCC2=CCN3CC[C@@H](OC1=O)[C@@H]23 (stereo in doubt; 8) [RETRORSINE]	40
C/C=C1/C[C@@H](C)[C@@](C)(OC(C)=O)C(=O)OC/C2=C/CN(C)CC[C@@H](OC1=O)C2=O [ACETYLSENKIRKINE]	42
C/C=C(/C)C(=O)O[C@@H]1CC[N+]2([O-])CC=C(COC(=O)[C@@](O)([C@H](C)O)C(C)(C)O)[C@H]12 (stereo partly drawn) [ECHIMIDINE N-OXIDE]	43
C/C=C(/C)C(=O)O[C@@H]1CCN2CC=C(COC(=O)[C@@](O)([C@H](C)O)C(C)(C)O)[C@H]12 [ECHIMIDINE]	36
C/C=C1/C[C@@]2(CO)O[C@@]2(C)C(=O)OCC2=CCN3CC[C@@H](OC1=O)[C@@H]23 [ERUCIFOLINE]	43
C/C=C1\C[C@@H](C)[C@@](C)(O)C(=O)OCC2=CCN3CC[C@@H](OC1=O)[C@@H]23 [INTEGERRIMINE]	43
